Data taken from patent US10829478B2, “5-[3-[piperazin-1-yl]-3-oxo-propyl]-imidazolidine-2,4-dione derivatives as ADAMTS 4 and 5 inhibitors for treating e.g. osteoarthritis” (Galapagos NV, priority 2016, dated 2020).
Where two headings read alike, the source gives them in different places.

Columns and labels:
[1] = biological target: T1, human MMP13 (Homo sapiens (Human), UniProt P45452); test: hMMP13 assay, Protocol 1 (390 MMP FRET Substrate I, Chemicon enzyme); type: biochemical; settings: Protocol 1, human MMP13 (Chemicon), read-out: hMMP-13 potency IC50
Method: (§1) Human MMP13 is preactivated by incubated the enzyme in the same buffer complemented with 1 mM freshly prepared p-Aminophenylmercuric acetate (AMPA) for 1 h at 37° C.

[2] = biological target: human ADAMTS6 (Homo sapiens (Human), UniProt Q9UKP5); test: hADAMTS-6 fluorescent based protease assay (520 MMP FRET substrate XII); type: biochemical; settings: 37° C. for 2 h; read-out: hADAMTS-6 potency IC50
Method: The IC50 value for test compounds can be determined in a fluorescent based protease assay.
The substrate contains sequence Arg-Pro-Lys-Pro-Tyr-Ala-Nva-Trp-Met-Lys (SEQ ID NO: 7) with attached a fluorescent probe and a quencher. Without ADAMTS6, the emission of the probe is quenched. If the substrate is cleaved by ADAMTS6, the emission of the probe is not quenched anymore. Inhibition of ADAMTS6 activity, will result in a decrease of the signal.
To perform the assay, 4 μL of a dilution series of compound in water, starting from 20 μM highest concentration, ⅕ dilution, is added to the wells. 2 ng ADAMTS6 enzyme is diluted in 25 mM Tris pH8.0, 0.05% CHAPS, 2.5 mM CaCl2 in a total volume of 26 μL (final concentration 0.73 nM). The reaction is started by addition of 10 μL of 1 μM 520 MMP FRET Substrate XII (final concentration, diluted in same buffer as described above) and the mixture is incubated at 37° C. for 2 h. […] After this incubation, cleavage of the substrate is measured using the Envision (Perkin Elmer, exc485/em530).

[3] = biological target: human ADAMTS4 (Homo sapiens (Human), UniProt O75173); test: hADAMTS-4 TBIS-1 cleavage assay, Protocol 2; type: biochemical
[4] = biological target: human TACE (Homo sapiens (Human), UniProt P78536); test: biochemical
Method: Finally, the fluorescence is read on the Envision (Perkin Elmer) after an incubation of 75 min at room temperature (Excitation 485 nm, Emission 530).

[5] = biological target: human MMP14 (Homo sapiens (Human), UniProt P50281); test: hMMP14 assay (390 MMP FRET Substrate I); type: biochemical; settings: human MMP14 (Biomol), read-out: hMMP-14 potency IC50
Method: The basis for the assay is the cleavage of the substrate 390 MMP FRET Substrate I (Anaspec Cat #AS-27076) by human MMP14 (Biomol, Cat #SE-259).
The reaction is initiated by adding to the assay plate 390 MMP FRET Substrate I (10 μL, 2.5 μM) in the same buffer.
Finally, the fluorescence is read on the Envision (Perkin Elmer) after an incubation of 60 min at room temperature (Excitation 485 nm, Emission 530).

[6] = biological target: human ADAMTS-5 (Homo sapiens (Human), UniProt Q9UNA0); test: hADAMTS-5 TBIS-1 cleavage assay, Protocol 3; type: biochemical; settings: 90 min at 37° C., read-out: hADAMTS-5 potency IC50
Method: The reaction is initiated by adding to the assay plate TBIS-1 (10 μL, 4.5 μM, Anaspec) in the same buffer.
Finally, the fluorescence is read on the Envision (Perkin Elmer) after an incubation of 90 min at 37° C. (Excitation 485 nm, emission 530).

[7] = biological target: T1, human MMP13; test: hMMP13 assay, Protocol 2 (390 MMP FRET Substrate I, Enzo enzyme); type: biochemical; settings: Protocol 2, human MMP13 (Enzo Life Sciences), read-out: hMMP-13 potency IC50
Method: as §1

[8] = Protocol 2, 180 min at 37° C., read-out: ADAMTS4 potency IC50

Chain of human ADAMTS-5 (Q9UNA0 262-930): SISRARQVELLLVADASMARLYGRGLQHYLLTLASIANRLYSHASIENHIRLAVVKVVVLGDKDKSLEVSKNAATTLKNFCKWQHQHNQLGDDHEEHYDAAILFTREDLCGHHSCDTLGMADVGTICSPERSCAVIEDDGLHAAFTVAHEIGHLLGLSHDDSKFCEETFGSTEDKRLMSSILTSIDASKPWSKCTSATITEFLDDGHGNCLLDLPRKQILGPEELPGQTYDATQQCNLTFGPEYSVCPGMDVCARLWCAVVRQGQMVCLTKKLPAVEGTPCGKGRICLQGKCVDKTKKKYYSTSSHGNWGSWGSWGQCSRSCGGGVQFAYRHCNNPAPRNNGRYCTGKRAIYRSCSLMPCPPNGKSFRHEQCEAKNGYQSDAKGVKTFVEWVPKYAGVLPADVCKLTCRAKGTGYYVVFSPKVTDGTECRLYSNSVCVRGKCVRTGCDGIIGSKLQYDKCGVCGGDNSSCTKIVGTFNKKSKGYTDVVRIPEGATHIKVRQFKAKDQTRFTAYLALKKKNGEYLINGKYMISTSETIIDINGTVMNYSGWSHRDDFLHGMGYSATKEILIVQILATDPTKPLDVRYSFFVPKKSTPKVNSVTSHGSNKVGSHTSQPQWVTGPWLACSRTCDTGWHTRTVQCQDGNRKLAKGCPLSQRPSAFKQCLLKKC
Chain of human ADAMTS6 (Q9UKP5 other isoform, or with tags, fused parts or gaps): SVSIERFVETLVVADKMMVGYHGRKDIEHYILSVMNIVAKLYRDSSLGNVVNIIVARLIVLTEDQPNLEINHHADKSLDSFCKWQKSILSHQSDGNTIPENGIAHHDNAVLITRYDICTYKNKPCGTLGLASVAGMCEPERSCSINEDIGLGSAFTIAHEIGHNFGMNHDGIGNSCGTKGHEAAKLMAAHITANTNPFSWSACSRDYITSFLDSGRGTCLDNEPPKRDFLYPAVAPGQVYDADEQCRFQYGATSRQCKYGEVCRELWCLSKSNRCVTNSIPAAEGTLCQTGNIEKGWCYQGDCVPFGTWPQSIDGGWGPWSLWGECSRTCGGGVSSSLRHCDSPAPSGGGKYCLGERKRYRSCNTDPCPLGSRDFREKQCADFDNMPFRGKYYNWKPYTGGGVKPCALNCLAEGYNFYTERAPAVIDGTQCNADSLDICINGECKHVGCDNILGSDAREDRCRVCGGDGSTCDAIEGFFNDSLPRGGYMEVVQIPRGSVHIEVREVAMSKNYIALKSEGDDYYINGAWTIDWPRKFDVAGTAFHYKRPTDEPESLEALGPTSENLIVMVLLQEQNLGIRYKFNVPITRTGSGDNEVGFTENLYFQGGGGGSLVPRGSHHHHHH
Chain of human ADAMTS4 (O75173 213-837): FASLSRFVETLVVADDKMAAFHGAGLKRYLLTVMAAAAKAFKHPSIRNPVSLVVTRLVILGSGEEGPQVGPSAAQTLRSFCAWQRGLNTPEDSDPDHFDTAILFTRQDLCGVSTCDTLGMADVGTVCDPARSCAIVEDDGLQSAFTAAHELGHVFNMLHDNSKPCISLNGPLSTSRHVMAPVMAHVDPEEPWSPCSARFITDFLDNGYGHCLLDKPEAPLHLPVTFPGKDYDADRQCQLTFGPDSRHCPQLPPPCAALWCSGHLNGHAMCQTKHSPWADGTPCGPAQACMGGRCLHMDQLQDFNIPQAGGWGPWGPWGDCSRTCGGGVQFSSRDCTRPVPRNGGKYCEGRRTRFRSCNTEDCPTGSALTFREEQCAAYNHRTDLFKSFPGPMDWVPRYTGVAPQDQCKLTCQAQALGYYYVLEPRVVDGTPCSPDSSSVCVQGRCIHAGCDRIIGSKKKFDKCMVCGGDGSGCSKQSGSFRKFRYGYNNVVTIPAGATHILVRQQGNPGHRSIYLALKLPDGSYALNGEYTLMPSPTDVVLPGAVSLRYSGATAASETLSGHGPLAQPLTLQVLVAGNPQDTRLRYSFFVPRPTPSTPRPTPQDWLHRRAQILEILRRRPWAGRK
Chain of human TACE (P78536 215-671): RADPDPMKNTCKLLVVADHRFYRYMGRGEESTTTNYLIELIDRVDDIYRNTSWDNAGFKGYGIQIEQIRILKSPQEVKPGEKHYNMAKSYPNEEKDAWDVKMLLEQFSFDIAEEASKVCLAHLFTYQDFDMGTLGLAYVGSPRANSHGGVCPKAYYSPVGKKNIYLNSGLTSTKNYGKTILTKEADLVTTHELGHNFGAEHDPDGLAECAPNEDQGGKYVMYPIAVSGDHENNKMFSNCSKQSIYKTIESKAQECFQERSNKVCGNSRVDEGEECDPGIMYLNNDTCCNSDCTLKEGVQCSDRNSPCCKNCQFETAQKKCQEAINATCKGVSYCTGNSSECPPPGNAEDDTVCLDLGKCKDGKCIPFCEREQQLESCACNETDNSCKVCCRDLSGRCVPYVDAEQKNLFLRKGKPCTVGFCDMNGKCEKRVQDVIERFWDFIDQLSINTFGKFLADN

SMILES | IC50 [1] | IC50 [2] | IC50 [4] | IC50 [5] | IC50 [6] | IC50 [3, 8] | IC50 [7] | IC50 [3]
COCC1(CC(C)C(=O)N2CCN(c3ccc(Cl)c(OC)c3)[C@@H](C)C2)NC(=O)NC1=O (mixture of isomers) [Cpd 47, 5-[3-[(3S)-4-(4-chloro-3-methoxy-phenyl)-3-methyl-piperazin-1-yl]-2-methyl-3-oxo-propyl]-5-(methoxymethyl)imidazolidine-2,4-dione] | > 100 nM | 0.001 to 25 nM | > 100 nM | > 100 nM | 25 to 50 nM |  |  | 25 to 50 nM
COC[C@]1(C[C@H](C)C(=O)N2CCN(c3cc(F)c(Cl)c(OC)c3)[C@@H](C)C2)NC(=O)NC1=O (mixture of isomers) [Cpd 121, 5-[3-[(3S)-4-(4-chloro-3-fluoro-5-methoxy-phenyl)-3-methyl-piperazin-1-yl]-2-methyl-3-oxo-propyl]-5-(methoxymethyl)imidazolidine-2,4-dione] |  | 0.001 to 25 nM | > 100 nM | > 100 nM | 25 to 50 nM |  | > 100 nM | 50 to 100 nM
COc1cc(N2CCN(C(=O)C(C)CC3(C)NC(=O)NC3=O)C[C@@H]2C)cc(C)c1Cl (mixture of isomers) [Cpd 125, 5-[3-[(3S)-4-(4-chloro-3-methoxy-5-methyl-phenyl)-3-methyl-piperazin-1-yl]-2-methyl-3-oxo-propyl]-5-methyl-imidazolidine-2,4-dione] |  | 0.001 to 25 nM | > 100 nM | > 100 nM | 25 to 50 nM |  | > 100 nM | 50 to 100 nM
COc1cc(N2CCN(C(=O)[C@@H](C)C[C@H]3NC(=O)NC3=O)CC2)cc(F)c1F (stereo in doubt) [Cpd 51, 5-[3-[4-(3,4-difluoro-5-methoxy-phenyl)piperazin-1-yl]-2-methyl-3-oxo-propyl]imidazolidine-2,4-dione] |  | 0.001 to 25 nM | > 100 nM | > 100 nM | > 100 nM | > 100 nM | > 100 nM | 
COc1cc(N2CCN(C(=O)[C@@H](C)C[C@@]3(C)NC(=O)NC3=O)C[C@@H]2C)cc(F)c1Cl (stereo in doubt) [Cpd 120, 5-[3-[(3S)-4-(4-chloro-3-fluoro-5-methoxy-phenyl)-3-methyl-piperazin-1-yl]-2-methyl-3-oxo-propyl]-5-methyl-imidazolidine-2,4-dione] |  | 0.001 to 25 nM | > 100 nM | > 100 nM | 0.001 to 25 nM |  | > 100 nM | 50 to 100 nM
CCc1cc(N2CCN(C(=O)[C@@H](C)C[C@@]3(COC)NC(=O)NC3=O)C[C@@H]2C)ccc1Cl (stereo in doubt) [Cpd 124, 5-[3-[(3S)-4-(4-chloro-3-ethyl-phenyl)-3-methyl-piperazin-1-yl]-2-methyl-3-oxo-propyl]-5-(methoxymethyl)imidazolidine-2,4-dione] |  | 0.001 to 25 nM |  |  |  | > 100 nM | > 100 nM | 
COc1cc(N2CCN(C(=O)CCC3(C)NC(=O)NC3=O)CC2)cc(Cl)c1F (centres unmarked) [Cpd 50, 5-[3-[4-(3-chloro-4-fluoro-5-methoxy-phenyl)piperazin-1-yl]-3-oxo-propyl]-5-methyl-imidazolidine-2,4-dione] | > 100 nM | 0.001 to 25 nM | > 100 nM |  | > 100 nM | > 100 nM |  | 
CC[C@]1(C[C@H](C)C(=O)N2CCN(c3cc(F)c(F)c(OC)c3)CC2)NC(=O)NC1=O [Cpd 57, (5R)-5-[(2S)-3-[4-(3,4-difluoro-5-methoxy-phenyl)piperazin-1-yl]-2-methyl-3-oxo-propyl]-5-ethyl-imidazolidine-2,4-dione] |  | 0.001 to 25 nM | > 100 nM | > 100 nM | 25 to 50 nM |  | > 100 nM | 50 to 100 nM
CCc1cc(N2CCN(C(=O)CCC3(CCC(=O)O)NC(=O)NC3=O)C[C@@H]2C)ccc1Cl (some centres unmarked) [Cpd 116, 3-[4-[3-[(3 S)-4-(4-chloro-3-ethyl-phenyl)-3-methyl-piperazin-1-yl]-3-oxo-propyl]-2,5-dioxo-imidazolidin-4-yl]propanoic acid] |  | 0.001 to 25 nM |  |  |  | > 100 nM | > 100 nM | 
COc1cc(N2CCN(C(=O)CC[C@H]3NC(=O)NC3=O)CC2)cc(F)c1Cl [Cpd 143, (5R)-5-[3-[4-(4-chloro-3-fluoro-5-methoxy-phenyl)piperazin-1-yl]-3-oxo-propyl]imidazolidine-2,4-dione] | > 100 nM | 0.001 to 25 nM | > 100 nM |  | > 100 nM | > 100 nM |  | 

More lines, main results first:

IC50 [1] | IC50 [2] | IC50 [4] | IC50 [5] | IC50 [6] | IC50 [3, 8] | IC50 [7] | SMILES | IC50 [3]
 | 0.001 to 25 nM | > 100 nM | > 100 nM | 50 to 100 nM | > 100 nM | > 100 nM | CCc1cc(N2CCN(C(=O)[C@@H](C)C[C@@]3(COC)NC(=O)NC3=O)C[C@@H]2C)cc(OC)c1Cl (mixture of isomers) [Cpd 117, 5-[3-[(3S)-4-(4-chloro-3-ethyl-5-methoxy-phenyl)-3-methyl-piperazin-1-yl]-2-methyl-3-oxo-propyl]-5-(methoxymethyl)imidazolidine-2,4-dione] | 
 | 50 to 100 nM | > 100 nM | > 100 nM | 50 to 100 nM | > 100 nM | > 100 nM | COc1cncc(N2CCN(C(=O)[C@@H](C)C[C@@]3(C4CC4)NC(=O)NC3=O)C[C@@H]2C)c1 (stereo in doubt) [Cpd 64, 5-cyclopropyl-5-[3-[(3 S)-4-(5-methoxy-3-pyridyl)-3-methyl-piperazin-1-yl]-2-methyl-3-oxo-propyl]imidazolidine-2,4-dione] | 
> 100 nM | 0.001 to 25 nM | > 100 nM | > 100 nM | 50 to 100 nM | > 100 nM |  | COc1cc(N2CCN(C(=O)CCC3(C)NC(=O)NC3=O)CC2)cc(Cl)c1Cl (centres unmarked) [Cpd 48, 5-[3-[4-(3,4-dichloro-5-methoxy-phenyl)piperazin-1-yl]-3-oxo-propyl]-5-methyl-imidazolidine-2,4-dione] | 
 | 0.001 to 25 nM | > 100 nM | > 100 nM | 50 to 100 nM | > 100 nM | > 100 nM | COc1cc(N2CCN(C(=O)CC[C@@]3(C)NC(=O)NC3=O)C[C@@H]2C)ccc1Cl [Cpd 55, (5R)-5-[3-[(3 S)-4-(4-chloro-3-methoxy-phenyl)-3-methyl-piperazin-1-yl]-3-oxo-propyl]-5-methyl-imidazolidine-2,4-dione] | 
 | 25 to 50 nM | > 100 nM |  | > 100 nM | > 100 nM | > 100 nM | COc1cc(Cl)c(C)cc1N1CCN(C(=O)CCC2(C)NC(=O)NC2=O)CC1 (centres unmarked) [Cpd 58, 5-[3-[4-(4-chloro-2-methoxy-5-methyl-phenyl)piperazin-1-yl]-3-oxo-propyl]-5-methyl-imidazolidine-2,4-dione] | 
 | 0.001 to 25 nM |  |  |  | > 100 nM | > 100 nM | CC(C)c1cc(N2CCN(C(=O)CC[C@@]3(C)NC(=O)NC3=O)C[C@@H]2C)ccc1Cl [Cpd 85, (5R)-5-[3-[(3 S)-4-(4-chloro-3-isopropyl-phenyl)-3-methyl-piperazin-1-yl]-3-oxo-propyl]-5-methyl-imidazolidine-2,4-dione] | 
 | 0.001 to 25 nM |  |  |  | > 100 nM | > 100 nM | CCc1cc(N2CCN(C(=O)CCC3(CCC(=O)OC(C)(C)C)NC(=O)NC3=O)C[C@@H]2C)ccc1Cl (stereo partly drawn) [Cpd 114, tert-butyl 3-[4-[3-[(3S)-4-(4-chloro-3-ethyl-phenyl)-3-methyl-piperazin-1-yl]-3-oxo-propyl]-2,5-dioxo-imidazolidin-4-yl]propanoate] | 
> 100 nM | 50 to 100 nM | > 100 nM |  | > 100 nM | > 100 nM |  | COc1cc(N2CCN(C(=O)CC[C@H]3NC(=O)NC3=O)CC2)cc(F)c1F [Cpd 128, (5R)-5-[3-[4-(3,4-difluoro-5-methoxy-phenyl)piperazin-1-yl]-3-oxo-propyl]imidazolidine-2,4-dione] | 
> 100 nM | 0.001 to 25 nM | > 100 nM | > 100 nM | 50 to 100 nM | > 100 nM |  | COc1cc(N2CCN(C(=O)CC[C@H]3NC(=O)NC3=O)CC2)cc(Cl)c1Cl [Cpd 145, (5R)-5-[3-[4-(3,4-dichloro-5-methoxy-phenyl)piperazin-1-yl]-3-oxo-propyl]imidazolidine-2,4-dione] | 
